Experimental data: US4798892A, “2-hydroxypropylamine heteroaryl ester derivatives” (priority 1986, dated 1989)
Several values for one entry are separate records, joined by “and”; a condition that tells them apart may be missing. Equal entries are not always repeated. Structures can show the parent of a compound that is named as a salt.

How the values were obtained:
[1] = molecular target: T1, beta adrenergic receptor (guinea pig right atria) (Cavia porcellus, UniProt H0W3H1); assay: Beta-blocking activity in vitro, guinea pig right atria (blockade of isoproterenol rate response); settings: Table I, guinea pig right atria, isoproterenol agonist, 60-minute incubation, 37° C.; for Kb: read-out: PA2 Rt. Atria (converted)
T1 construct: guinea pig right atria and guinea pig tracheal strips mounted in a tissue bath; from tissue; host or cells: guinea pig right atria, spontaneously beating

[2] = Enzymatic hydrolysis of beta blockers by dog aqueous humor (procedure C); type: in vitro ADME
Experimental: (§1) Chemicals--Acetonitrile was "HPLC" grade. Distilled water was used to dissolve the compounds and 0.01N HCl was used to dissolve compounds requiring an acidic pH for dissolution.
(§2) Enzyme Source--Fresh aqueous humor was collected from eyes of dogs using a 23-gauge needle while fresh dog blood was collected into heparinized Vacutainer tubes. Fresh liver was homogenized in 0.9% NaCl using a Potter-Elvehjem Teflon pestle and glass homogenizer making a 25% (W/V) homogenate.
(§3) Incubation Condition--A 0.5 ml aliquot of dog aqueous humor, blood or liver homogenate was incubated with 12.5 μg (0.5 ml) of beta blocker in a Dubnoff shaking metabolic incubator at 37° C. for 60 and 120 min. Denatured tissue controls were prepared by adding 2.0 ml of acetonitrile into 0.5 ml of aqueous humor, blood or liver homogenate to destroy esterase activities prior to addition of the beta blockers. The controls were then incubated at 37° C. for 120 min. After 60 and 120 min, the incubations were terminated by addition of 2 ml of acetonitrile and immediately mixed by a Vortex® to stop esterase activities.
(§4) Sample Processing and Data Analyses--All samples were centrifuged at 4000 RPM for 10 min to sediment denatured proteins. The resultant supernatants were transferred to WISP® vials and analyzed using an HPLC assay developed for beta blockers. The hydrolysis of beta blockers by aqueous humor, blood and liver homogenate was determined by disappearance of the compounds. The extent of enzymatic hydrolysis by each tissue was determined by comparing the amount of each compound (absolute peak area) recovered at each time point to the amount of each compound (absolute peak area) in denatured tissue control and aqueous control samples. The results of these experiments are shown in Tabe III.

[3] = Enzymatic hydrolysis of beta blockers by dog liver homogenate (procedure C); type: in vitro ADME; settings: dog, liver homogenate, 37° C.; for remaining at 1 h: read-out: Percent drug remaining, dog liver homogenate, 1 HR; for remaining at 2 h: read-out: Percent drug remaining, dog liver homogenate, 2 HR
Experimental: as §1, §2, §3, §4

[4] = Half-lives of beta blockers in dog whole blood (procedure D); type: in vitro ADME; settings: 37° C., read-out: T1/2 dog blood
Experimental: The rate of disappearance of a compound is expressed as the half-life (T1/2), which is the time period in which one half of the initial amount of compound tested disappears. In each experiment, 1 ml of a solution containing 50 μg of the test compound was added to 1 ml of whole blood or 1 ml of a 33% (w/v) liver homogenate. The samples were incubated in a Dubnoff shaking metabolic incubator for 2.5, 5.0, 10.0, 20.0, 30.0 and 60.0 minutes at 37° C. At the designated time periods, the test mixtures were removed from the incubator and transferred to a 0° C. ice bath. Acetonitrile (2 ml) was immediately added and the mixtures were mixed to stop enzymatic hydrolysis. Zero time samples were prepared by adding 2 ml of acetonitrile to denature the proteins prior to addition of the test compounds. After centrifugation to sediment denatured proteins, 2 ml of the supernatant was removed and analyzed by high pressure liquid chromatography, using a mobile phase of 60% acetonitrile/40% 0.05 m sodium phosphate buffer (pH 6.6), a U.V. detector and Waters u Bondapak Phenyl column. The half life of each test compound was determined graphically by plotting the decrease in concentrations as a function of time.

[5] = Enzymatic hydrolysis of beta blockers by dog blood (procedure C); type: in vitro ADME; settings: dog, blood, 37° C.; for remaining at 1 h: read-out: Percent drug remaining, dog blood, 1 HR; for remaining at 2 h: read-out: Percent drug remaining, dog blood, 2 HR
Experimental: as §1, §2, §3, §4

[6] = system: beta adrenergic receptor (heart rate response to isoproterenol); assay: Duration and potency of beta-blocking action in vivo, 3-hour infusion in pentobarbital-anesthetized dogs; design: species or system dog; settings: Table II; for % I (Percent inhibition of heart rate response to isoproterenol): isoproterenol 0.5 μg/kg bolus, 3-hour infusion
Experimental: The duration of β-blockade was determined in vivo using pentobarbital-anesthetized dogs instrumented for measurement of heart rate using a Beckman cardiotachometer triggered electronically by a phasic aortic blood pressure signal. Both vagus nerves were severed in the cervical region and the animals were mechanically ventilated. The experimental design used employed a 3-hour infusion of test compound. Bolus doses of isoproterenol (0.5 μg/kg) were used to assess the degree of β-blockade and recovery from β-blockade after […] of the infusion. The doses were spaced at 10-minute intervals and were given before, during and following the infusion of test compounds. The infusion rate was adjusted so that at the end of the 3-hour infusion period the degree of isoproterenol inhibition averaged about 50% of control. Following termination of blocker infusion, percent recovery from β-blockade was computed and the time associated with 80% recovery estimated.

[7] = after termination of 3-hour infusion

T1 sequence (H0W3H1 1-470): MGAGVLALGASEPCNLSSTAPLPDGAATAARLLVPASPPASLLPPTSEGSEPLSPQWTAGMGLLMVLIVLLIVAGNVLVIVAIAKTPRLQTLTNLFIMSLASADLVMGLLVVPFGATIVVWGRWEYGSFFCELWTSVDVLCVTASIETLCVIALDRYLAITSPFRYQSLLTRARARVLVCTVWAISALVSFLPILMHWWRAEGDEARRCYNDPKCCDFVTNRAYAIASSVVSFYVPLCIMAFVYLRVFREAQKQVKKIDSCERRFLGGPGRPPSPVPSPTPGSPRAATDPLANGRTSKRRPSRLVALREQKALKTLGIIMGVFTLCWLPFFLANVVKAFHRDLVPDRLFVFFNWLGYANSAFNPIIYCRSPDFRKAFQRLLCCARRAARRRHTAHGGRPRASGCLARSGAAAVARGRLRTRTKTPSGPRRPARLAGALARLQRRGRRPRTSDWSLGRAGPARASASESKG

CC(=O)NCC(C)NCC(O)COC(=O)c1ccccc1F (stereo not shown) [III, 3-[1-methyl-2-(methylcarbonylamino)]ethylamino-2-hydroxypropyl 2-Fluorobenzoate]
Kb [1]: > 501 nM

CC(=O)NCC(C)(C)NCC(O)COC(=O)c1ccccc1F (stereo not shown) [IV, 3-[1,1-Dimethyl-2-(methylcarbonylamino)]ethylamino-2-hydroxypropyl 2-Fluorobenzoate]
remaining at 1 h ([2]; 1 hr, 37° C., read-out: Percent drug remaining, dog aqueous humor, 1 HR): 87%
remaining at 2 h ([2]; 2 hr, 37° C., read-out: Percent drug remaining, dog aqueous humor, 2 HR): 52%
half-life ([2]; approximate value determined by procedure C, read-out: T1/2 dog aqueous humor): ~120 min
remaining at 1 h [3]: 39%
remaining at 2 h [3]: 23%
half-life [4]: 7.5 min
remaining at 1 h [5]: 0%
remaining at 2 h [5]: 0%
Kb [1]: 31.6 nM
Recovery Time 50% [6, 7]: 7 min
Recovery Time 80% [6, 7]: 35 min
Potency ([6]; infusion rate adjusted so isoproterenol inhibition averaged about 50% at end of 3-hour infusion): 2.7 mg/kg/180 min
% I (Percent inhibition of heart rate response to isoproterenol) [6]: 61%

CC(C)(CNS(=O)(=O)c1ccccc1)NCC(O)COC(=O)c1ccccc1F (stereo not shown) [VIII, 3-[1,1-Dimethyl-2-(phenylsulfonylamino)]ethylamino-2-hydroxypropyl 2-Fluorobenzoate Oxalate]
remaining at 1 h [3]: 0%
remaining at 2 h [3]: 0%
half-life [4]: 15 min
remaining at 1 h [5]: 0%
remaining at 2 h [5]: 0%
Kb [1]: 100 nM
% I (Percent inhibition of heart rate response to isoproterenol) [6]: 43% and 55%

O=C(Cc1ccccc1)NCCNCC(O)COC(=O)c1ccccc1F (stereo not shown) [XIII, 3-[2-(Benzylcarbonylamino)ethyl]amino-2-hydroxypropyl 2-Fluorobenzoate Hydrochloride]
Kb [1]: > 1000 nM

COCCOC(=O)NCC(C)(C)NCC(O)COC(=O)c1ccccc1F (stereo not shown) [XXXI, 3-[1,1-Dimethyl-2-[2-[(2-methoxy)ethoxycarbonylamino]]ethylamino-2-hydroxypropyl 2-Fluorobenzoate Oxalate]
Kb [1]: 20 nM

CN(C)S(=O)(=O)NCC(C)(C)NCC(O)COC(=O)c1ccccc1F (stereo not shown) [XXXII, 3-[1,1-Dimethyl-2-(dimethylaminosulfonylamino)]ethylamino-2-hydroxypropyl 2-Fluorobenzoate Oxalate]
Kb [1]: 39.8 nM

CC(C)(CNC(=O)N1CCOCC1)NCC(O)COC(=O)c1ccccc1 (stereo not shown) [XXXIII, 3-[1,1-Dimethyl-2-(1-morpholinocarbonylamino)]ethylamino-2-hydroxypropyl Benzoate Oxalate Hemihydrate]
Kb [1]: 5.01 nM

CC(C)(CNC(=O)N1CCOCC1)NCC(O)COC(=O)c1ccccc1Cl (stereo not shown) [XXXIV, 3-[1,1-Dimethyl-2-(1-morpholinocarbonylamino)]ethylamino-2-hydroxypropyl 2-Chlorobenzoate Oxalate]
Kb [1]: 12.6 nM

CC(C)(CNC(=O)N1CCOCC1)NCC(O)COC(=O)c1ccc(O)cc1 (stereo not shown) [XXXVI, 3-[1,1-Dimethyl-2-(1-morpholinocarbonylamino)]ethylamino-2-hydroxypropyl 4-Hydroxbenzoate Oxalate]
Kb [1]: 7.94 nM

Cc1cc(O)ccc1C(=O)OCC(O)CNC(C)(C)CNC(=O)N1CCOCC1 (stereo not shown) [XXXVII, 3-[1,1-Dimethyl-2-(1-morpholinocarbonylamino)]ethylamino-2-hydroxypropyl 2-Methyl-4-hydroxybenzoate Oxalate]
PA2 Rt. Atria [1]: 8.2
